# Experimental data from article PMC12683216, “Using High‐Throughput Screening to Identify Crosslinking Peptides That Control Cell‐Mediated Matrix Degradation” (Advanced Healthcare Materials, 2025).
# Where a SMILES comes first, the peptide text is derived from it. [ ]: non-standard residue; d: D form. βAla = NCCC(=O)O
# How the values were obtained:
# Format in all cases: in vitro ADME, human
# Conditions in all cases: human, 24 h, LC-MS
# [1] = Soluble peptide degradation, Media condition (cell-conditioned media, LC-MS)
# Method: (§1) Most in vitro protease activity assays incubate the peptides or proteins of interest with a single protease in a buffered solution. However, the kinetics of protease activity in tissues are complex and highly regulated, and both the activity^[ [37] ^] and substrate specificity^[ [38] ^] of proteases can be modulated through association with other proteins.^[ [39] ^] Most MMP‐substrate peptides are also cleaved by multiple proteases,^[ [5] ^] and within the context of biomaterials, the most important factor is typically how the combined activity of all proteases, rather than the activity of any specific protease, modifies the local microenvironment versus the activity due to any individual enzyme. We synthesized peptides identified in the TAILS proteomic screen that were present on proteins that are known to be secreted or found on the cell membrane, pooled them, and added them either to cell culture media on top of cells, the “Cells” condition, or conditioned media lacking cells, the “Media” condition (Figure 2A). The fraction of peptides remaining after 24 h in each condition was then quantified using LC‐MS. Soluble proteases should be present in both conditions, however, membrane‐type proteases should primarily be found in the samples containing cells and not the conditioned media samples. A key benefit of this approach is that it surveys the total functional proteolytic activity, including the effects of inhibitors and co‐factors, and quantifies the degradation rate of soluble peptides by the complete secretome of different cell types.
# (§2) hUVECs (75000 per well) or hMSCs (36000 per well) were seeded into a 48 well plate, and 500 µL media was added to the wells. […] The peptide libraries were dissolved at a stock solution of 10 mM total peptide content. For libraries containing 38 peptides, 95 µL of the stock solution was added to each well; for libraries with 19 peptides, 47.5 µL was added to each well, and media was taken at 0 and 24 h. Add 4 µL of acetic acid to all collected media in the LC‐MS plates and store them in a −80 °C freezer to prevent further proteolytic degradation. From each sample, 10 µL of crude solution was introduced by the LC‐MS through a Thermo Scientific Vanquish LC System (Thermo Fisher Scientific), which outputted to a Thermo Scientific LTQ XL Linear Ion Trap Mass Spectrometer (Thermo Fisher Scientific). The sampled mixture was trapped on a column (ProntoSIL C18 AQ, 120 Å, 3 µm, 2.0 x 50 mm HPLC Column, PN 0502F184PS030, MAC‐MOD Analytical Inc.). The samples were loaded onto the column with a solvent containing acetonitrile/water, 5:95 (v/v) containing 1% acetic acid at a flow rate of 300 µL min^−1 and held for 1 min. The sample was then eluted from the column with a linear gradient of 5–40% Solvent B (1% acetic acid in acetonitrile) at the same flow rate for 5 min. This was followed by a 1 min ramp up to 100% Solvent B, where it was re‐equilibrated with Solvent A (1% acetic acid) to 5% solvent B over the course of 1 min and held there for 2 min. The column temperature was kept at a constant 29 °C, and the mass spectrometer was operated in positive ion mode. Using a Heated ESI, the Source Voltage was set to 4.1 kV, and the capillary temperature was 350 °C. For non‐library degradation studies, 2.5 µL of 10 mM peptide stock solution for each peptide was added.
# (§3) To assess the activity of the conditioned media, the media were divided into two equal portions. One portion was used for a standard degradation study, while the other was cultured for an additional 24 h before the PanMMP and KLVADLMASAE were added. After 24 h of incubation, the media were collected for further analysis. To assess the impact of recombinant MMP‐14 on PanMMP and KLVADLMASAE, recombinant MMP‐14 (antibodies.com) was dissolved in the media at a concentration of 0.5 nM. The remaining steps followed the standard degradation study protocol. […]
# [2] = as above; remark: listed apart in the source
# Method: as §1, §2, §3
# [3] = Soluble peptide degradation, Cells condition (LC-MS)
# Method: as §1, §2
# In the MMP‐14 inhibitor study, the MMP‐14 inhibitor NSC 405 020 (Cayman Chemical Company) was dissolved in DMSO to make a 10 mM stock solution and stored in −20 °C freezer. 0.5 µL MMP‐14 inhibitor stock solution was added to each well to achieve a 10 µM final concentration.
# For all degradation studies using soluble peptides, a non‐proteolytically degradable NH2‐βFβAβAβAβAβAβA‐amide (βFβA6) peptide, where βF is β‐phenylalanine and βA is β‐alanine, was added at a 50 µM concentration and used as an internal standard. Peptide degradation ratios were measured by LC‐MS and analyzed by Xcalibur. […]
# [4] = Figure 2B heatmap, pooled TAILS-derived soluble peptides in 24 h hUVEC-conditioned media without cells, ratio to βFβA6 internal standard, 24 h / 0 h, N = 5, read-out: Fraction of peptide remaining at 24 hours: hUVEC Media
# [5] = Figure 2B heatmap, pooled TAILS-derived soluble peptides in 24 h hMSC-conditioned media without cells, ratio to βFβA6 internal standard, 24 h / 0 h, N = 5, read-out: Fraction of peptide remaining at 24 hours: hMSC Media
# [6] = hMSCs in culture with fresh media (Cells condition), Figure 2B heatmap, pooled TAILS-derived soluble peptides (Ac-βAla N-terminus, βAla-amide C-terminus) in media on hMSCs (36000 per well, 48 well plate, 500 µL), ratio to βFβA6 internal standard, 24 h / 0 h, N = 5, read-out: Fraction of peptide remaining at 24 hours: hMSC Cells
# [7] = hUVEC-conditioned media without cells (Media condition), Figure 3B heatmap, split-and-pool libraries KLVADX1X2ASAE in hUVEC-conditioned media without cells, ratio to βFβA6, N = 2, read-out: Fraction of peptide remaining after 24 hours: hUVEC Media
# [8] = hMSC-conditioned media without cells (Media condition), Figure 3B heatmap, split-and-pool libraries KLVADX1X2ASAE in hMSC-conditioned media without cells, ratio to βFβA6, N = 2, read-out: Fraction of peptide remaining after 24 hours: hMSC Media
# [9] = hMSCs in culture with fresh media (Cells condition), Figure 3B heatmap, split-and-pool libraries KLVADX1X2ASAE (19 or 38 peptides per library) in media on hMSCs, ratio to βFβA6, N = 2, read-out: Fraction of peptide remaining after 24 hours: hMSC Cells
# [10] = hUVECs in culture with fresh media (Cells condition), Figure 3B heatmap, split-and-pool libraries KLVADX1X2ASAE in media on hUVECs, ratio to βFβA6, N = 2, read-out: Fraction of peptide remaining after 24 hours: hUVEC Cells
# [11] = hUVECs in culture with fresh media (Cells condition), Figure 2B heatmap, pooled TAILS-derived soluble peptides in media on hUVECs (75000 per well, 48 well plate, 500 µL), ratio to βFβA6 internal standard, 24 h / 0 h, N = 5, read-out: Fraction of peptide remaining at 24 hours: hUVEC Cells
"remaining at 24 h [1, 4] [%]","remaining at 24 h [2, 5] [%]","remaining at 24 h [3, 6] [%]","remaining at 24 h [3, 11] [%]",Structure (SMILES),other results
102,98,88,100,CC(=O)NCCC(=O)N[C@@H](CCC(=O)O)C(=O)N[C@@H](CO)C(=O)N[C@@H](CO)C(=O)N[C@@H](Cc1c[nH]cn1)C(=O)N[C@@H](CC(N)=O)C(=O)N[C@H](C(=O)N[C@@H](Cc1ccc(O)cc1)C(=O)N[C@@H](CC(C)C)C(=O)N[C@H](C(=O)N[C@@H](CCC(N)=O)C(=O)NCCC(N)=O)[C@@H](C)O)[C@@H](C)O [ESSHNTYLTQ] (Ac-[βAla]ESSHNTYLTQ[βAla]-NH2),–
–,78,22,70,CSCC[C@H](NC(=O)[C@H](CCC(=O)O)NC(=O)CNC(=O)[C@H](Cc1ccccc1)NC(=O)[C@H](CO)NC(=O)[C@H](Cc1ccc(O)cc1)NC(=O)[C@@H](NC(=O)[C@H](CCC(=O)O)NC(=O)CCNC(C)=O)C(C)C)C(=O)N1CCC[C@H]1C(=O)N[C@@H](Cc1c[nH]c2ccccc12)C(=O)NCCC(N)=O [EVYSFGEMPW] (Ac-[βAla]EVYSFGEMPW[βAla]-NH2),–
102,101,96,106,CC[C@H](C)[C@H](NC(=O)CCNC(C)=O)C(=O)N[C@H](C(=O)N[C@@H](CCCCN)C(=O)N[C@H](C(=O)N[C@@H](CC(=O)O)C(=O)N[C@H](C(=O)N1CCC[C@H]1C(=O)N[C@@H](CC(=O)O)C(=O)N[C@@H](CCSC)C(=O)N[C@H](C(=O)NCCC(N)=O)C(C)C)[C@@H](C)CC)[C@@H](C)O)C(C)C [IVKTDIPDMV] (Ac-[βAla]IVKTDIPDMV[βAla]-NH2),–

# The remaining lines, values behind:
Structure (SMILES),"remaining at 24 h [1, 4] [%]","remaining at 24 h [2, 5] [%]","remaining at 24 h [3, 6] [%]","remaining at 24 h [3, 11] [%]",other results
CC(=O)NCCC(=O)N[C@@H](C)C(=O)N[C@@H](CO)C(=O)N[C@@H](C)C(=O)N1CCC[C@H]1C(=O)N[C@@H](C)C(=O)N[C@@H](CCCNC(=N)N)C(=O)N1CCC[C@H]1C(=O)N[C@@H](C)C(=O)N[C@@H](CC(C)C)C(=O)N[C@@H](CO)C(=O)NCCC(N)=O [ASAPARPALS] (Ac-[βAla]ASAPARPALS[βAla]-NH2),94,96,88,–,–
CC(=O)NCCC(=O)N[C@@H](CCCCN)C(=O)N[C@@H](CC(C)C)C(=O)N[C@H](C(=O)N[C@@H](C)C(=O)N[C@@H](CC(=O)O)C(=O)N[C@@H](CC(N)=O)C(=O)N1CCC[C@H]1C(=O)N[C@@H](C)C(=O)N[C@@H](CO)C(=O)N[C@@H](C)C(=O)N[C@@H](CCC(=O)O)C(=O)NCCC(N)=O)C(C)C [Asn-Pro] (Ac-[βAla]KLVADNPASAE[βAla]-NH2),–,–,–,–,"remaining at 24 h ([1]; cells or culture medium, Figure 3B heatmap, split-and-pool libraries KLVADX1X2ASAE in hUVEC-conditioned media without cells, ratio to βFβA6, N = 2, read-out: Fraction of peptide remaining after 24 hours: hUVEC Media): 98%; remaining at 24 h ([2]; cells or culture medium, Figure 3B heatmap, split-and-pool libraries KLVADX1X2ASAE in hMSC-conditioned media without cells, ratio to βFβA6, N = 2, read-out: Fraction of peptide remaining after 24 hours: hMSC Media): 84%; remaining at 24 h ([3]; cells or culture medium, Figure 3B heatmap, split-and-pool libraries KLVADX1X2ASAE (19 or 38 peptides per library) in media on hMSCs, ratio to βFβA6, N = 2, read-out: Fraction of peptide remaining after 24 hours: hMSC Cells): 54%; remaining at 24 h ([3]; cells or culture medium, Figure 3B heatmap, split-and-pool libraries KLVADX1X2ASAE in media on hUVECs, ratio to βFβA6, N = 2, read-out: Fraction of peptide remaining after 24 hours: hUVEC Cells): 91%"
CC(=O)NCCC(=O)N[C@@H](CCCCN)C(=O)N[C@@H](CC(C)C)C(=O)N[C@H](C(=O)N[C@@H](C)C(=O)N[C@@H](CC(=O)O)C(=O)N[C@@H](CC(=O)O)C(=O)N[C@@H](CCC(N)=O)C(=O)N[C@@H](C)C(=O)N[C@@H](CO)C(=O)N[C@@H](C)C(=O)N[C@@H](CCC(=O)O)C(=O)NCCC(N)=O)C(C)C [Asp-Gln] (Ac-[βAla]KLVADDQASAE[βAla]-NH2),–,–,–,–,"remaining at 24 h [1, 7]: 102%; remaining at 24 h [2, 8]: 75%; remaining at 24 h [3, 9]: 39%; remaining at 24 h [3, 10]: 84%"
CC[C@H](C)[C@H](NC(=O)[C@H](CCC(=O)O)NC(=O)[C@H](C)NC(=O)[C@H](CC(C)C)NC(=O)[C@H](C)NC(=O)[C@H](CC(=O)O)NC(=O)CCNC(C)=O)C(=O)N[C@@H](CC(C)C)C(=O)N[C@@H](CCC(N)=O)C(=O)N[C@@H](C)C(=O)N[C@@H](CC(N)=O)C(=O)N[C@@H](CC(=O)O)C(=O)NCCC(N)=O [DALAEILQAND] (Ac-[βAla]DALAEILQAND[βAla]-NH2),–,90,81,84,–
CC(=O)NCCC(=O)N[C@@H](CCC(=O)O)C(=O)N[C@@H](CCC(=O)O)C(=O)N[C@@H](CO)C(=O)N[C@@H](CO)C(=O)N[C@@H](Cc1c[nH]c2ccccc12)C(=O)NCC(=O)NCC(=O)N[C@@H](CO)C(=O)N1CCC[C@H]1C(=O)N[C@@H](CO)C(=O)N1CCC[C@H]1C(=O)N[C@H](C(=O)N[C@@H](CCCNC(=N)N)C(=O)NCCC(N)=O)C(C)C [EESSWGGSPSPVR] (Ac-[βAla]EESSWGGSPSPVR[βAla]-NH2),102,99,89,–,–
CC(=O)NCCC(=O)N[C@@H](CCCCN)C(=O)N[C@@H](CC(C)C)C(=O)N[C@H](C(=O)N[C@@H](C)C(=O)N[C@@H](CC(=O)O)C(=O)NCC(=O)N[C@@H](Cc1ccc(O)cc1)C(=O)N[C@@H](C)C(=O)N[C@@H](CO)C(=O)N[C@@H](C)C(=O)N[C@@H](CCC(=O)O)C(=O)NCCC(N)=O)C(C)C [Gly-Tyr] (Ac-[βAla]KLVADGYASAE[βAla]-NH2),–,–,–,–,"remaining at 24 h [1, 7]: 100%; remaining at 24 h [2, 8]: 74%; remaining at 24 h [3, 9]: 48%; remaining at 24 h [3, 10]: 88%"
